For test [1], the system named is OPM-2 Luc cells. Nature of the test: OPM-2 xenograft efficacy model. The following applies: dosed orally to female athymic nude mice inoculated with OPM-2 Luc cells. The class given is in vivo. How it is done:
Example 1 was dosed orally to female athymic nude mice inoculated with OPM-2 Luc cells.

Test [2] deals with OPM-2 Luc cells. Put plainly: tumor PD model (OPM-2 Luc). The class given is in vivo. The following applies: dosed orally to female athymic nude mice inoculated with OPM-2 Luc cells; compared with Reference Compound 1. How it is done: Both compounds were dosed orally to female athymic nude mice inoculated with OPM-2 Luc cells.
The target in test [3] is recombinant human Mcl-1 (residues 171-327) / Bim interaction (Homo sapiens (Human), UniProt Q07820). Nature of the test: biochemical. The test is classed as binding. The following applies: 0.1 nM Mcl-1(171-327), 0.05 nM biotin-Bim (51-76); read-out: Mcl-1 HTRF IC50. (TR-FRET usually uses a lanthanide donor and a delayed reading to cut background.)
The test system of test [4] is human multiple myeloma cell line, OPM-2. Nature of the test: Cell viability assay (OPM-2 10 FBS), CellTiter-Glo. The test is classed as cell-based. The conditions noted are these: read-out: OPM-2 10% FBS IC50 IP; OPM-2 cells, 10% FBS, 16 h incubation. The method, boiled down:
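Steps: plate cells at 3000/well in 10% FBS growth medium, add serially diluted compound, incubate 16 h at 37 °C with 5% CO2, add detection reagent and read luminescence after 25 min. A 4-parameter logistic model gives IC50.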
For orientation: In ATP-based viability assays light output follows the ATP content of the culture.

Chain of recombinant human Mcl-1 (residues 171-327) / Bim interaction (Q07820 171-327): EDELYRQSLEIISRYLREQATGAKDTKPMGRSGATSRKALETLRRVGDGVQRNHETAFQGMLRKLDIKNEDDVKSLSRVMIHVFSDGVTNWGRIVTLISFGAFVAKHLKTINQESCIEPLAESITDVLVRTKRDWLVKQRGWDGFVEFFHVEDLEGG

As usually defined, the IC50 is the concentration at which inhibition is half-maximal. On to `CO[C@]1(CN2CCN3CCOC[C@@H]3C2)/C=C/C[C@H](C)[C@@H](C)S(=O)(=O)NC(=O)c2ccc3c(c2)N(C[C@@H]2CC[C@H]21)C[C@@]1(CCCc2cc(Cl)ccc21)CO3` [Example 4, (1S,3′R,6′R,7′R,8′E,11′S,12′R)-6-CHLORO-7′-((9AS)-HEXAHYDROPYRAZINO[2,1-C][1,4]OXAZIN-8(1H)-YLMETHYL)-7′-METHOXY-11′,12′-DIMETHYL-3,4-DIHYDRO-2H, 15′H-SPIRO[NAPHTHALENE-1,22′-[20]OXA[13]THIA[1,14]DIAZATETRACYCLO[14.7.2.0-3,6˜.0˜19,24˜]PENT ACOSA[8,16,18,24]TETRAEN]-15′-ONE 13′,13′-DIOXIDE], for which the “in vivo efficacy in an OPM-2 xenograft efficacy model” value with OPM-2 Luc cells [1] is listed as “in vivo efficacy”. In addition, the “in vivo efficacy relative to Reference Compound 1 in a tumor PD model” value with OPM-2 Luc cells [2] was “superior in vivo efficacy”. In addition, the IC50 is 0.116 nM in test [3] and 94 nM in test [4].

(Values after patent US10821115B2, “Compounds that inhibit Mcl-1 protein” (priority 2017, dated 2020).)
